# Reference: patent publication US10729636B2, “Compositions comprising peptide [sequence]” (NURITAS LIMITED, priority 2016, dated 2020)
# Key:
# Type in all cases: cell-based
# [1] = tested on: Human Dermal Fibroblasts (HDF); test: Elastin production assay (ELISA); details: 5, 1 or 0.1 μg/ml, 96 h, compared with untreated control, FIG. 4
# Protocol: Elastin is a highly elastic protein in connective tissue and allows many tissues in the body to resume their shape after stretching or contracting. […] Human Elastin ELISA kit assay is designed to measure Elastin in tissue or protein/peptide compositions.
# Human Dermal Fibroblasts (HDF) were seeded in 24 well plates at 50,000 cells per well in DMEM containing 10% fetal calf serum (FCS), 1% Pen/strep, 1% L-glutamine and allowed to adhere for 24 h.
# Following the initial 24 h incubation the cells were incubated with 5 μg/ml, 1 μg/ml or 0.1 μg/ml synthetic peptide for 96 h respectively.
# After treatment, the cells were lysed using cell lysis buffer and sonicated for 10 seconds. The lysed cells were centrifuged and the supernatant was removed from each sample. Total protein concentration was determined using a BCA assay. Each sample was diluted in assay buffer to contain 10 μg total protein. 50 μl of each sample was then assayed using the […] Human Elastin ELISA kit. All steps were carried out according to the manufacturer's instructions.
# HACAT cells = test: Glucose uptake (2-DG), HACAT; details: compared with untreated control, FIG. 5
# Protocol: Glucose uptake in skeletal muscle cells was measured using 2-deoxyglucose (2-DG). 2-DG is taken up by glucose transporters and metabolized to 2-DG-6-phosphate (2-DG6P). The amount of accumulated non-metabolized 2-DG6P is proportional to glucose uptake by cells.
# Following stimulation, the cells were incubated with 10 μl/well of 2-DG solution for 40 min and glucose uptake was measured using the ‘PrismColor Glucose Uptake Assay Kit’ (Molecutools), all steps were carried out according to the manufacturer's instructions. The experiment was repeated using HACAT cells.
# [2] = tested on: mTOR phosphorylated at Ser2448; test: Muscle protein synthesis (Phospho-mTOR assay); details: HSkMC cells, 2 hours, FIG. 9
# Protocol: Phospho-mTOR sandwich ELISA detects endogenous levels of phosphorylated mTOR at Ser2448.
# Day 1: Seed HSkMC cells in 500 uL/well of HSkMC Growth Medium and let them adhere to the wells for 16-24 h.
# Day 2: Remove growth medium and add 500 uL/well of HSkMC Differentiation Medium to let them differentiate for 5-7 days.
# Day 7: Treat cells for 2 hours. Collect cell lysates in lysis buffer.
# Day 8: Perform BCA (protein determination) and run the assay. In a first incubation step, a mTOR antibody coated onto the ELISA microwells is used to capture mTOR (phospho and non-phospho) from the cell lysates. Then, following extensive washing, a specific phospho-mTOR detection antibody is added to detect only the phospho-mTOR protein captured before. Finally, a HRP-linked antibody is used to recognise the detection antibody and through the addition of TMB (HRP substrate) develop color proportionally to the quantity of mTOR phosphorylated at Ser2448.
# AMPK pathway = test: Phospho-AMPK alpha / Phospho-ACC / Phospho-Akt1 ELISA (mechanism of action); details: phospho-ELISAs on cell lysates; FIGS. 12-14
# Protocol: This set of experiments was undertaken to understand the mechanism of action of a peptide of SEQ ID NO. 1.
# Phospho-Acetyl-CoA Carboxylase (Ser79) Sandwich ELISA Kit is a solid phase sandwich enzyme-linked immunosorbent assay (ELISA) that detects endogenous levels of acetyl-CoA carboxylase (ACC) when phosphorylated at Ser79. A phospho-ACC (Ser79) rabbit antibody was coated onto the microwells. After incubation with cell lysates, phospho-ACC protein was captured by the coated antibody. Following extensive washing, an ACC mouse detection mAb was added to detect the captured ACC protein. Anti-mouse IgG, HRP-linked antibody was then used to recognize the bound detection antibody. […] The magnitude of the absorbance for the developed color was proportional to the quantity of ACC phosphorylated at Ser79.
# Phospho-Akt1 (Ser473) Sandwich ELISA Kit is a solid phase sandwich enzyme-linked immunosorbent assay (ELISA) that detects endogenous levels of phospho-Akt1 (Ser473) protein. […] The magnitude of absorbance for this developed colour is proportional to the quantity of phospho-Akt1 (Ser473) protein.
# Phospho-AMPKα (Thr172) Sandwich ELISA Kit is a solid phase sandwich enzyme-linked immunosorbent assay (ELISA) that detects endogenous levels of AMPKα when phosphorylated at Thr172. […] The magnitude of the absorbance for this developed colour was proportional to the quantity of AMPKα phosphorylated at Thr172. […]
sequence,measurement,setting,value
WKDEAGKPLVK [SEQ ID NO. 1],elastin production,[1],increase
same,glucose uptake,HACAT cells,increase
same,mTOR,[2]; 0.5 μg/ml,increase
same,mTOR,[2]; 5 μg/ml,increase
same,mechanism of action (pathway),AMPK pathway,working through the AMPK pathway
